Measured values taken from US11091476B2, “Protein kinase inhibitors, preparation method and medical use thereof” (Gan & Lee Pharmaceuticals, priority 2015, dated 2021).

Columns and labels:
CDK1/CyclinA2 = CDK1/CyclinA2 (Homo sapiens (Human), UniProt P06493); test: CDK kinase inhibitory activity, ADP-Glo Kinase Assay, CDK1/CyclinA2; format: biochemical
Pim-1 = Pim-1 (Homo sapiens (Human), UniProt P11309); test: Kinase inhibitory activity on Pim-1; format: biochemical
Description: 1.2 Experimental Preparation • 1.2.1 Preparation of Kinase Reaction Buffer I: The 5×Reaction Buffer A (Promega; V307A-C) provided in the kit was mixed and diluted with MILLI-Q® H2O and 0.1 M DTT (dithiothreitol) to give 4× kinase buffer, and then MILLI-Q® H2O was further added to finally formulate the solution into 1× Kinase buffer.
1 μl of 10 mM standard substance stock solution was taken and added to 9 μl of kinase reaction buffer I and mixed well; then 90 μl of kinase reaction buffer I was added and mixed well; then 100 μl of kinase reaction buffer I was added and mixed well. The final concentration was 50 μM. • b. 40 μl of kinase reaction buffer II was added into B2 to B10 of a 96-well plate, and 50 μl of the above solution was added into B1; • c. 10 μl of solution was taken from well B1, added into B2, and mixed well; then 10 μl of the resulting solution was taken and added into B3, and dilution was carried out in sequence to B9, so as to obtain control solutions that are diluted by 5-fold sequentially. • (2) Preparation of test compound solution: • a. Test compound solutions at a certain concentration were taken, respectively, diluted with kinase reaction buffer I to a final concentration of 50 μM compound solution; • b. 40 μl of kinase reaction buffer II was added into H2 to H10 of the 96-well plate; and 50 μl of the above solution was added into H1; • c. 10 μl of solution was taken from well H1, added into H2, and mixed well; then 10 μl of the resulting solution was taken and added into H3, and dilution was carried out in sequence to H9, so as to obtain test compound solutions that are diluted by 5-fold sequentially. • 1.2.4 Preparation of a mixed solution of reaction substrate and ATP: • a. Preparation of ATP solution: • 200 μl of 0.1 mM ATP solution: 2 μl of 10 mM ATP was added to 198 μl of kinase reaction buffer I; • 300 μl of 50 μM ATP solution: 150 μl of kinase reaction buffer I was added to 150 μl of the above 0.1 mM ATP solution; • b. Preparation of 300 μl of reaction substrate solution: • 150 μl 1 μg/μl reaction substrate stock solution was added to 150 μl kinase reaction buffer I, and mixed well; • c. The above a/b solutions were mixed to obtain mixed solutions, respectively.
1.3 Experimental process: • 1.3.1: 2 μl of compound solutions of various concentrations were taken, added to a 384-well plate, and centrifuged 3 minutes; • 1.3.2: 4 μl of kinase solution was added to each well, centrifuged at 5000 rpm and 18° C. for 10 minutes, and shaken on a plate shaker for 10 minutes; • 1.3.3: 4 μl of mixed solution of substrate and ATP was added to each well, centrifuged at 5000 rpm and 18° C. for 10 minutes, and shaken on a plate shaker at 37° C. for 90 minutes; • 1.3.4: The 384-well plate was taken out, and allowed to stand to room temperature; • 1.3.5: 10 μl of ADP-GLO™ reagent was added to each well, centrifuged at 5000 rpm and 18° C. for 18 minutes, and shaken on a plate shaker at 25° C. for 40 minutes, and then the reaction was stopped; • 1.3.6: 20 μl of kinase detection reagent was added to each well, centrifuged at 5000 rpm and 18° C. for 10 minutes, and shaken on a plate shaker at 25° C. for 30 minutes; and • 1.3.7: M1000pro MICROPLATE READER was used to read […] values.
The inhibition rate of each compound at each concentration point was calculated by the formula as follows and curve fitting was performed by GraphPad Prism 5 software to obtain the IC50 value.

[1] = tested on: U87-luc orthotopic brain xenograft; test: Pharmacodynamic study in U87-luc orthotopic brain xenograft model, median survival; format: in vivo, BALB/c nude mice; details: for Medium survival: survival time range in brackets
Source text: Pharmacodynamic study of the compound 17 of this disclosure and the combination of compound 17 of the disclosure and temozolomide in a U87-luc orthotopic brain xenograft model
Adult female BALB/c nude mice were used as test animals. A U87-luc orthotopic brain xenograft model was used to study the effect of representative compound 17 of this disclosure on the median survival of female BALB/c nude mice after intragastric administration.
Healthy adult female BALB/c nude mice, 8 mice/group, 6-8 weeks old, weighing 18-22 g, purchased from Shanghai SIPPR-BK Laboratory Animal Co., Ltd., Animal Production License No: 2008001658261; 2008001658263. • 7.2.3 Preparation of the test compounds
An appropriate amount of compound 17 was weighed, and added with 0.1% hydroxyethyl cellulose/0.5% TWEEN®80 as vehicle to 0.3125 mg/ml;
An appropriate amount of Temozolomide sample was weighed, and added with 0.1% CMC-Na+0.25% TWEEN®80 as vehicle to 0.3 mg/ml.
Adult female BALB/c nude mice were anesthetized by intraperitoneal injection of sodium pentobarbital at a dose of 80 mg/kg. To relieve pain, animals were injected subcutaneously with buprenorphine at the time points 30 minutes before operation and 6 hours after operation at a dose of 0.1 mg/kg. Animals were observed after anesthesia until all animals had awakened.
The anesthetized animals were properly fixed, the animals' head skin was sterilized with 70% ethanol, and an approximately 10 mm long incision was made on the right side of the midline from the forehead to the ear line. 3×10^5 U87-luc cells (3 μl, mixture of PBS and Matrigel at a ratio of 4:1) were inoculated at the right frontal lobe that is 2 mm away from the right side of the bregma and is 1 mm away from the front side of the coronal suture in each animal. The incision was sutured with a No. 6 suture, and sterilized with polyvinylpyrrolidone. Animals are kept warm until anabiosis. Six days after tumor cell transplantation, tumor animals were grouped by stratified randomization based on […] signal intensity values, and the average bioluminescence reached 2.812E+07 photons/sec when the groups were administered in groups. Different animal groups were administered at different doses for a total of 35 days.

Row | SMILES | IC50 (CDK1/CyclinA2) [nM] | IC50 (Pim-1) [nM] | Medium survival ([1]; 3.125 mg/kg QD intragastric) | Medium survival ([1]; 6.25 mg/kg QD intragastric) | Medium survival ([1]; 12.5 mg/kg QD intragastric) | Medium survival ([1]; 25 mg/kg QD intragastric) | Medium survival ([1]; 50 mg/kg QD intragastric) | Effect on median survival, in words ([1]; dose-dependent)
1 | CCN1CCC(c2ccc(Nc3ncc(F)c(-c4cc(F)c5c(c4)C4(CCCC4)C(C)=N5)n3)nc2)CC1 [Example 12, N-(5-(1-ethylpiperidin-4-yl)pyridin-2-yl)-5-fluoro-4-(7′-fluoro-2′-methylspiro [cyclopentane-1,3′-indol]-5′-yl)pyrimidine-2-amino] | 1070 | 15.1 |  |  |  |  |  | 
2 | CC1=Nc2c(F)cc(-c3nc(Nc4ccc(C5CCN(C)CC5)cn4)ncc3F)cc2C12CCCC2 [Example 17, 5-Fluoro-4-(7′-fluoro-2′-methylspiro[cyclopentane-1,3′-indol]-5′-yl)-N-(5-(1-methylpiperidin-4-yl)pyridin-2-yl)pyrimidine-2-amino] | 2710 | 38.3 | 38.5(26-59) days | 43.5(31-48) days | 44.5(31-114) days | 61(41-76) days | 78.5(63->114) days | significantly prolong the median survival
